# Reference: patent US8481051B2, “Cytotoxic T-cell epitope peptides that specifically attack epstein-barr virus-infected cells and uses thereof” (Medical and Biological Laboratories Co., Ltd., priority 2005, dated 2013)
# Legend:
# Type in all cases: cell-based, human
# [1] = system: EBNA1-specific CTL clone C6; test: IFNγ ELISPOT assay, CTL clone C6 with peptide-pulsed autologous CD40-B cells; settings: autologous CD40-B cells pulsed with 10 μg/mL peptide; FIG. 9
# Experimental: (§1) ELISPOT assays were performed by a known method (Kuzushima K., et al., Blood, 101:1460-1468 (2003)). Specifically, CD8 T cells were co-cultured with various stimulators in wells of Multiscreen-HA plates (Millipore, Billerica, Mass.) coated with anti-human interferon-γ (IFNγ) monoclonal antibody (Pierce Biotechnology, Philadelphia, Pa.). As stimulators, (A) autologous EBNA1 mRNA-transduced CD40-B cells or non-transduced CD40-B cells and (B) autologous or allogenic LCLs (1×10^5 cells/well) were seeded into each well. For peptide titration assays and the overlapping peptide assay described below, serial concentrations of synthetic peptides were added to autologous CD40-B cells for one hour at room temperature.
# (§2) After reacting with anti-human IFNγ rabbit polyclonal antibody (Pierce Biotechnology), followed by addition of peroxidase-labeled anti-rabbit immunoglobulin antibody (Genzyme, Cambridge, Mass.) and substrate, the plates were washed and dried. IFNγ spots were enumerated under a stereoscopic microscope.
# [2] = system: EBNA1-specific CTL clone B5; test: IFNγ ELISPOT assay, CTL clone B5 with peptide-pulsed autologous CD40-B cells; settings: for recognition of 20-mer overlapping peptide by clone B5: autologous CD40-B cells pulsed with 10 μg/mL peptide, FIG. 9
# Experimental: as §1, §2
# [3] = system: SNK-6 cells; test: CTL assay (51Cr release) against SNK-6; settings: SNK-6 pulsed with 100 nM epitope peptide; four-hour CTL assay; FIG. 5A
# Experimental: Next, cytotoxic activities of H7 on LCLs were explored. CTL assays were conducted according to the following procedures. Target cells were labeled with 50 μCi chromium (^51Cr) for one and a half hours at 37° C., washed, and mixed with CTLs at the indicated effector:target ratios in 96-well plates. After incubation for 4 or 16 hours at 37° C., the radioactivity in the supernatants was counted with a γ-counter. The percentage of specific ^51Cr release was calculated as follows: 100×{(experimental release)−(spontaneous release)}/{(maximum release)−([…])}.
# [4] = system: LMP1-specific CTL clone H7; test: IFNγ ELISPOT assay, CTL clone H7 with peptide-pulsed A0206-293T cells; settings: for recognition by H7 in ELISPOT assay: A0206-293T cells pulsed with various concentrations of synthetic peptide, FIG. 2D
# Experimental: ELISPOT assays were performed by known methods (Kuzushima K., et al., Blood, 94:3094-3100 (1999); Kondo E., et al., J. Immunol., 169:2164-2171 (2002); and Kuzushima K., et al., Blood, 98:1872-1881 (2001)). Specifically, CD8 T cells were co-cultured with various stimulators in wells of Multiscreen-HA plates (MAHA S4510; Millipore, Billerica, Mass., USA) coated with anti-human interferon-γ (IFNγ) monoclonal antibody (Pierce Biotechnology, Philadelphia, Pa., USA).
# As stimulators, HLA-A*0206-positive or -negative LCLs (1×10^5 cells/well) or HLA-A*0206-expressing HEK-293T (A0206-293T) cells (5×10^4 cells/well) transfected with plasmids using Lipofectamin 2000 (Invitrogen) were seeded into each well 48 hour before T cell addition. For peptide titration assays, several concentrations of synthetic peptides (Greiner, Frickenhausen, Germany) were pulsed to A0206-293T cells for one hour at room temperature. After probing with […] (Pierce Biotechnology) and reacting with peroxidase-labeled anti-rabbit IgG antibody (Genzyme, Cambridge, Mass., USA) for spot visualization, the plates were washed and dried. IFNγ spots were enumerated using a stereoscopic microscope.
substance,measurement,setting,value
#24: 20-mer overlapping EBNA1 peptide (402-421),recognition of 20-mer overlapping peptide by clone C6,[1],recognized
#38: 20-mer overlapping EBNA1 peptide (500-519),recognition of 20-mer overlapping peptide by clone B5,[2],recognized
#39: 20-mer overlapping EBNA1 peptide (507-526),recognition of 20-mer overlapping peptide by clone B5,[2],recognized
I I I I L I I F I (IIIILIIFI) [SEQ ID NO: 1],lysis of epitope peptide-pulsed SNK-6 cells by H7,[3],efficiently lysed
same,recognition by H7 in ELISPOT assay,[4],recognized by H7
"I I I L I I F I (IIILIIF) [SEQ ID NO: 18, LMP1 amino acid residues 64-71]",recognition by H7 in ELISPOT assay,[4],only the 9-mer peptide was recognized by H7
VYGGSKTSL [SEQ ID NO: 22],recognition by clone B5 in peptide titration,"[2]; autologous CD40-B cells, serial dilutions of peptide, FIG. 10C",not recognized even with much higher concentrations
"YLLEMLWRL [SEQ ID NO: 25, reference compound]",IFNγ production by H7 with the peptide,[4]; data not shown,did not produce IFNγ
